Measured values from article PMC7082846 (ACS infectious diseases, 2019).
In brackets after ≈: the same amount, converted by molar mass. Several values for one entry are separate records, joined by “and”; a condition that tells them apart may be missing. Identical values can stand only once.

Assays:
human STING [1] = molecular target: T1, human STING (Homo sapiens, UniProt Q86WV6); assay: ISG54 luciferase reporter assay in HepG2/STING/ISG54Luc cells; type: cell-based
cGAS-STING pathway = assay: ISG54 luciferase reporter assay in HepAD38/cGAS-STING/ISG54Luc cells; type: cell-based, human; conditions: 4 h treatment
[2] = molecular target: human STING with truncation of carboxyl-terminal domain (CTD) (Homo sapiens, UniProt Q86WV6); assay: ISG54 luciferase reporter assay in HepAD38/cGAS-STINGΔC/ISG54Luc cells; type: cell-based; conditions: 4 h treatment
[3] = tested on: HepAD38/cGAS-STING/ISG54Luc cells; type: cell-based; conditions: human, 4 h
human STING [4] = molecular target: T1, human STING; assay: Cytokine mRNA induction; type: cell-based; conditions: 6 h, qRT-PCR
mouse STING = molecular target: T2, mouse STING (Mus musculus, UniProt Q3TBT3); assay: IFN-β mRNA induction; type: cell-based; conditions: HepG2/mSTING cells, 6 h, qRT-PCR
T2 sequence (Q3TBT3 1-378): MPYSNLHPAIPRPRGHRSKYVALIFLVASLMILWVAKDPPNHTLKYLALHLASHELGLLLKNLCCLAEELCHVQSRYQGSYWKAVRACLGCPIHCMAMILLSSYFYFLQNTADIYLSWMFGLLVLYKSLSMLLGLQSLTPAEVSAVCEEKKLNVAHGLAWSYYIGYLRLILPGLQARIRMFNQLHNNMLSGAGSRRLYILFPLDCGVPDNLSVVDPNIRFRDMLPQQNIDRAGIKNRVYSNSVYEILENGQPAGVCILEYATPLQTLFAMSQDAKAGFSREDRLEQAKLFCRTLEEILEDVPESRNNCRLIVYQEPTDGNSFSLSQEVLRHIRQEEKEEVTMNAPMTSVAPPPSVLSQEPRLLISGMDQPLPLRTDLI

human STING [5] = molecular target: T1, human STING; assay: IRF3 phosphorylation; type: cell-based; conditions: 100 μM, 2 h; HepG2/STING vs HepG2/STINGΔC cells
THF cells [6] = assay: Cytotoxicity in THF cells; type: cell-based, human
Dengue virus (DENV) = type: cell-based, dengue virus (serotype 2, New Guinea C strain); conditions: THF cells pre-treated 8 h
Yellow fever virus (YFV) = type: cell-based, Yellow fever virus (17D strain); conditions: THF cells pre-treated 8 h
Zika virus (ZIKV) = assay: Antiviral assay, pre-treated THF cells infected with ZIKV; type: cell-based, Zika virus (PRVABC59 strain); conditions: THF cells pre-treated 8 h
[7] = tested on: PBMC-derived dendritic cells; assay: CD80 expression by flow cytometry in PBMC-derived dendritic cells; type: cell-based, human; conditions: BNBC 50 μM or LPS 10 μg/ml, 48 h; gated from CD11c+ cells
[8] = Aqueous solubility in PBS; type: physicochemical
[9] = Metabolic stability in human liver microsomes; type: in vitro ADME
[10] = Metabolic stability in mouse liver microsomes; type: in vitro ADME
Caco-2 permeability = type: in vitro ADME; conditions: human
[11] = tested on: cytochrome P450 (Cyp) enzymes (CYP1A2, 2A6, 2B6, 2C8, 2C9, 2C19, 2D6, CYP2E1 and 3A4); assay: Cytochrome P450 inhibition panel; type: in vitro ADME; conditions: inhibition = greater than 50% inhibition at 10 μM
[12] = Plasma protein binding, human; type: in vitro ADME
[13] = Plasma protein binding, mouse; type: in vitro ADME
THF cells [14] = assay: Cytokine response
human PBMCs = assay: Cytokine mRNA induction; conditions: 6 h, qRT-PCR
[15] = tested on: PBMC-derived dendritic cells; assay: Cytokine mRNA induction; conditions: BNBC 100 μM or LPS 10 μg/ml, 6 h
[16] = MOI 0.1, 48 h, qRT-PCR, maximal reduction

T1 sequence (Q86WV6 whole entry): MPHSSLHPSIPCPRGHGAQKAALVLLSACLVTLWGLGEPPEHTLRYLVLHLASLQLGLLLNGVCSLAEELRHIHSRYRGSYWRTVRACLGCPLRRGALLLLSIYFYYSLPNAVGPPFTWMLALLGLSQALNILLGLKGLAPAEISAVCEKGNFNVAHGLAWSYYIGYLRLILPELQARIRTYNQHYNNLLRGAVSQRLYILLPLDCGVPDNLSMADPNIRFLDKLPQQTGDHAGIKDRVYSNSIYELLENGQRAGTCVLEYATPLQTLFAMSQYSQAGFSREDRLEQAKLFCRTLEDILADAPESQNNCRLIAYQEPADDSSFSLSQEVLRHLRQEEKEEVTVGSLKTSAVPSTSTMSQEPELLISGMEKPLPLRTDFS
human STING with truncation of carboxyl-terminal domain (CTD), sequence (Q86WV6 1-340 limits assumed): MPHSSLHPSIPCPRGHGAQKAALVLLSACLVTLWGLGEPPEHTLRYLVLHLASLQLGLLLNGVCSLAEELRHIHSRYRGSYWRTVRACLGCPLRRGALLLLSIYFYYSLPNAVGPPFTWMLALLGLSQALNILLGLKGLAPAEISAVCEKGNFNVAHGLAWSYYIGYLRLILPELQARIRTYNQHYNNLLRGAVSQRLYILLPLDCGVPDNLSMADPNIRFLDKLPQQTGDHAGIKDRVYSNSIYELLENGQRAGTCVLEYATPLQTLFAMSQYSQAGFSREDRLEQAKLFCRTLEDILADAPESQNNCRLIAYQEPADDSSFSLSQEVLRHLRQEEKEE

## O=C(Nc1cccc2ccccc12)c1cc2c(cc1Br)OCO2 [BNBC, 6-bromo-N-(naphthalen-1-yl)benzo[d][1,3]dioxole-5-carboxamide]
Human STING [1]; HepG2/STING/ISG54 reporter cells lacking cGAS
  Induction of ISG54 promoter-driven luciferase expression: concentration-dependently induced ISG54 driven luciferase expression
Human STING [1]; Minimum Effective Concentration to induce 5-fold luciferase activity relative to mock-treated control, HepG2/STING/ISG54Luc cells, 4 h
  MinEC5X: 2.2 µM
Human STING [1]; maximum fold of luciferase induction, HepG2/STING/ISG54Luc cells, 4 h
  Maximum induction (fold): 20.5 fold
cGAS-STING pathway
  Induction of ISG54-driven luciferase expression: induced luciferase expression in a concentration-dependent manner
[2]
  Induction of ISG54-driven luciferase expression: did not induce luciferase expression
[3]
  Cytotoxicity: concentration up to which no cytotoxicity was detected: > 200 µM
Human STING [4]; HepG2/STING cells
  Induction of IFN-β, IL29 (IFN-λ1) and TNF-α mRNA expression: concentration-dependently induced IFN-β, IL29 (IFN-λ1) and TNF-α mRNA expression
Mouse STING
  Induction of IFN-β mRNA expression: not in parental HepG2 cells, HepG2/STINGΔC cells and HepG2-derived cell line expressing mouse STING (HepG2/mSTING)
Human STING [5]
  IRF3 phosphorylation and nuclear translocation: only induced IRF3 phosphorylation and nuclear translocation in HepG2/STING cells
THF cells [6]
  Cytotoxicity: absence of cytotoxicity
Dengue virus (DENV); [16]
  Reduction of intracellular DENV RNA level: up to 90 fold
Yellow fever virus (YFV); [16]
  Reduction of intracellular YFV RNA level: ≤ 150 fold
Zika virus (ZIKV); [16]
  Reduction of intracellular ZIKV RNA level: ≤ 800 fold
[7]
  Induction of CD80 expression: significantly induced expression of CD80
[8]; pH 4, aqueous buffer
  solubility: 3.57 µM (≈ 1.32 µg/mL)
[8]; pH 7.4, aqueous buffer
  solubility: 2.62 µM (≈ 0.97 µg/mL)
[9]
  half-life: 20 min
[10]
  half-life: 2.21 min
Caco-2 permeability
  Papp A→B: 145 nm/s
  Papp B→A: 59.8 nm/s
  efflux ratio: 0.41
[11]
  Cyp IC50 < 10 μM (number of Cyps/reactions inhibited out of 10): 5 out of 10 and 5/10
[12]
  fraction unbound: 0.0266
[13]
  fraction unbound: 0.0212
THF cells [14]; THF cells with knockout of STING, but not TRIF or IPS-1 (MAVS), 50 μM, 6 h
  Effect of STING knockout on compound-induced IFN-β mRNA expression: completely abolished
THF cells [14]; THF cells, mRNA 6 h, ELISA 18 h
  Induction of cytokine mRNA and IFN-β secretion: concentration-dependently induced IFN-β, IL-28A and IL-6 mRNA expression as well as secretion of IFN-β into culture media
Human PBMCs
  Induction of cytokine expression: efficiently induced expression of type I and type III IFN, but to a lesser extent, TNF-α
[15]
  Induction of cytokine mRNAs: efficiently induced the expression of IFN-β and IL-29 mRNAs and to a lesser extent, TNF-α and IL-6 mRNAs

## Cc1ccc2c(=O)c3cccc(CC(=O)O)c3oc2c1C [DMXAA, 5’,6’-dimethylxanthenone-4-acetic acid, reference compound]
Human STING [4]; HepG2/STING cells expressing human STING
  Induction of IFN-β mRNA expression: not in HepG2/STING cells

## O=C(NCc1ccco1)c1ccc2c(c1)N(Cc1c(F)cccc1Cl)C(=O)CS2 [G10, reference compound]
Dengue virus (DENV); compared with BNBC
  Reduction of DENV RNA: reduced virial RNAs in similar potencies
Yellow fever virus (YFV); compared with BNBC
  Reduction of YFV RNA: reduced virial RNAs in similar potencies
Zika virus (ZIKV); compared with BNBC
  Reduction of ZIKV RNA: reduced virial RNAs in similar potencies

## Lipopolysaccharides [LPS, reference compound]
[7]
  Induction of CD80 expression: significantly induced expression of CD80
[15]
  Induction of cytokine mRNAs: efficiently induced the expression of IFN-β and IL-29 mRNAs and to a lesser extent, TNF-α and IL-6 mRNAs
